In patent US20160362416A1, “ANTIVIRAL COMPOUNDS” (Gilead Sciences, Inc., priority 2012, published 2016):

Assays:
[1] = test system: NS5A chimeric genotype 1b Con1 replicon with genotype 3a S52 strain NS5A gene; test: HCV genotype 3a NS5A chimeric replicon assay; format: cell-based; details: Hepatitis C virus, 72 h, read-out: 3a (nM)
Summary of the method: (§1)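 Stable 1b Con1 RLuc replicon cells, or Huh-Lunet cells transiently transfected with chimeric replicons (Con1 backbone carrying 3a S52 or 4a ED43 NS5A; JFH-1 backbone carrying 2b MD2b-1 NS5A, M31), treated with 3-fold dilutions for 72 h. Renilla luciferase read after lysis; EC50 by non-linear regression.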

[2] = test system: NS5A chimeric genotype 2a JFH-1 replicon with genotype 2a J6 strain NS5A gene (M31); test: HCV genotype 2a J6 NS5A chimeric replicon assay, transient (t); format: cell-based; details: Hepatitis C virus, 72 h, read-out: 2a J6 (t) (nM)
[3] = test system: Y93H in genotype 3a NS5A replicon; test: Resistance mutant replicon assay, genotype 3a NS5A Y93H; format: cell-based, HCV; details: Hepatitis C virus, read-out: 3a Y93H (nM)
Summary of the method: (§2)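 Transiently transfected Huh-7-derived cured-51 cells carrying site-directed NS5A mutant Pi-RLuc replicons are exposed to compound for 72 h. Luciferase output is fitted by non-linear regression to give EC50.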

[4] = test system: NS5A chimeric genotype 2a JFH-1 replicon with genotype 2b MD2b-1 strain NS5A gene (M31); test: HCV genotype 2b NS5A chimeric replicon assay, stable (s); format: cell-based; details: Hepatitis C virus, 72 h, read-out: 2b (s) (nM)
[5] = test system: stable HCV 2a JFH-1 Rluc replicon cells (L31 present in NS5A); test: HCV genotype 2a JFH-1 RLuc replicon reporter assay; format: cell-based; details: Hepatitis C virus, 72 h, read-out: 2a JFH (nM)
[6] = test system: stable HCV 1b RLuc replicon cells (genotype 1b Con1 replicon); test: HCV genotype 1b RLuc replicon reporter assay; format: cell-based; details: Hepatitis C virus; stable genotype 1b Con1 RLuc replicon cells, 72 hours
Summary of the method: as §1

[7] = test system: stable HCV 1a RLuc replicon cells (genotype 1a H77 replicon); test: HCV genotype 1a RLuc replicon reporter assay; format: cell-based; details: Hepatitis C virus; stable genotype 1a H77 RLuc replicon cells, 72 hours
[8] = IV and PO single dose pharmacokinetic studies in SD rats; format: in vivo; details: Sprague-Dawley, rat, plasma, male SD rats, IV infusion 1 mg/kg, oral gavage 2 mg/kg, read-out: Rat % F
Procedure: IV and PO Single Dose Pharmacokinetic Studies in SD Rats: The pharmacokinetics of selected compounds was characterized in male Sprague-Dawley (SD) rats (250-300 g). In this study, two groups of naïve purebred SD rats (N=3 per group, fasted over night) received the selected compound either as an intravenous (IV) infusion (1 mg/kg over 30 minutes) via the jugular vein or by oral gavage (2 mg/kg). The intravenous (IV) dosing vehicle was 5% ethanol, 35% polyethylene glycol 400 (PEG 400) and 60% water pH 2.0. The oral dosing vehicle was 5% ethanol, 55% PEG 400 and 40% citrate buffer pH 2.2.
Serial blood samples (approximately 0.3 mL each) were collected from jugular vein or other suitable vein at specified time points. For the IV infusion group, the blood samples were collected predose and at 0.25, 0.48, 0.58, 0.75, 1.5, 3, 6, 8, 12 and 24 hours after the start of infusion. For the oral group, the blood samples were collected predose and at 0.25, 0.50, 1, 2, 4, 6, 8, 12 and 24 hours after dosing. The blood samples were collected into Vacutainer™ tubes containing EDTA-K3 as the anti-coagulant and were centrifuged at approximately 4° C. to obtain plasma. The plasma samples were stored at −20° C. until analysis by LC/MS/MS.
A bioanalytical method utilizing high performance liquid chromatography coupled to tandem mass spectrometry (LC/MS/MS) was developed for analysis of the selected compound in rat plasma. Detection was performed using selected reaction monitoring (SRM); Ions representing the precursor (M+H)^+ species was selected in quadrupole 1 (Q1) and collided with argon gas in the collision cell (Q2) to generate specific product ion, which was subsequently monitored by quadrupole 3 (Q3). Standard curve and quality control samples were prepared in male rat plasma and processed in the same way as the test samples to generate quantitative data.
Pharmacokinetic parameters were generated using non-compartmental pharmacokinetic analysis (Phoenix WinNonlin, version 6.3). Values below the lower limit of quantification (LLOQ) were assigned a value of zero if predose and treated as missing thereafter. Area under the curve (AUC) was calculated using the linear trapezoidal rule. The oral bioavailability (% F) was determined by comparison of the area under the curve (AUC) of the compound and/or a metabolite generated in plasma following oral administration to that generated following intravenous administration.

[9] = test system: Y93H in genotype 1a NS5A replicon; test: Resistance mutant replicon assay, genotype 1a NS5A Y93H; format: cell-based, HCV; details: Hepatitis C virus, read-out: 1a Y93H (nM)
Summary of the method: as §2

[10] = test system: Q30E in genotype 1a NS5A replicon; test: Resistance mutant replicon assay, genotype 1a NS5A Q30E; format: cell-based, HCV; details: Hepatitis C virus, read-out: 1a Q30E (nM)
Procedure: (§3) Evaluation of cell-based anti-HCV activity: Antiviral potency (EC50) was determined using a Renilla luciferase (RLuc)-based HCV replicon reporter assay. To perform the assay for genotype 1 and 2a JFH-1, stable HCV 1a RLuc replicon cells (harboring a dicistronic genotype 1a H77 replicon that encodes a RLuc reporter), stable HCV lb RLuc replicon cells (harboring a dicistronic genotype 1b Conl replicon that encodes a RLuc reporter), or stable HCV 2a JFH-1 Rluc replicon cells (harboring a dicistronic genotype 2a JFH-1 replicon that encodes a RLuc reporter; with L31 present in NS5A) were dispensed into 384-well plates for EC50 assays. To perform the assay for genotype 2a (with M31 present in NS5A) or 2b, NS5A chimeric genotype 2a JFH-1 replicons that encodes a RLuc-Neo reporter and either genotype 2a J6 strain NS5A gene or genotype 2b MD2b-1 strain NS5A gene (both with M31 present) respectively, were either transiently transfected (t) into Huh-Lunet cells or were established as stably replicating replicon cells (s) is provided. Either cells were dispensed into 384-well plates for EC50 assays. To perform the assay for genotype 3 and 4, NS5A chimeric genotype 1b Conl replicons that encodes a Pi-RLuc reporter and either genotype 3a S52 strain NS5A gene or genotype 4a ED43 strain NS5A gene respectively, were transiently transfected (t) into Huh-Lunet cells, which were subsequently dispensed into 384-well plates. Compounds were dissolved in DMSO at a concentration of 10 mM and diluted in DMSO either manually or using an automated pipeting instrument. Serially 3-fold diluted compounds were either manually mixed with cell culture media and added to the seeded cells or directly added to the cells using an automated instrument. DMSO was used as a negative (solvent; no inhibition) control, and the protease inhibitor ITMN-191 was included at a concentration >100×EC50 as a positive control. 72 hours later, cells were lysed and Renilla luciferase activity quantified as recommended by the manufacturer (Promega-Madison, Wis.). Non-linear regression was performed to calculate EC50 values.
To determine the antiviral potency (EC50) against resistance mutants, resistance mutations, including M28T, Q30R, Q30H, Q30E, L31M, Y93C, Y93H, and Y93N in genotype 1a NS5A, Y93H and L31V/Y93H in genotype 1b NS5A, and Y93H for in genotype 3a NS5A, were introduced individually into either 1a Pi-Rluc or 1b Pi-Rluc replicons by site directed mutagenesis. Replicon RNA of each resistant mutant was transiently transfected into Huh-7-derived cured-51 cells and antiviral potency was determined on these transfected cells as described above.

[11] = test system: NS5A chimeric genotype 2a JFH-1 replicon with genotype 2b MD2b-1 strain NS5A gene (M31); test: HCV genotype 2b NS5A chimeric replicon assay, transient (t); format: cell-based; details: Hepatitis C virus, 72 h, read-out: 2b (t) (nM)
Procedure: as §3

[12] = test system: NS5A chimeric genotype 1b Con1 replicon with genotype 4a ED43 strain NS5A gene; test: HCV genotype 4a NS5A chimeric replicon assay; format: cell-based; details: Hepatitis C virus, 72 h, read-out: 4a (s) (nM)
[13] = test system: Y93N in genotype 1a NS5A replicon; test: Resistance mutant replicon assay, genotype 1a NS5A Y93N; format: cell-based, HCV; details: Hepatitis C virus, read-out: 1a Y93N (nM)
Summary of the method: as §2

| SMILES | EC50 [1] [nM] | EC50 [2] [nM] | EC50 [3] [nM] | EC50 [4] [nM] | EC50 [5] [nM] | EC50 [6] [nM] | EC50 [7] [nM] | bioavailability [8] [%] | EC50 [9] [nM] | EC50 [10] [nM] | EC50 [11] [nM] | EC50 [12] [nM] | EC50 [13] [nM] |
| --- | --- | --- | --- | --- | --- | --- | --- | --- | --- | --- | --- | --- | --- |
| COC(=O)N[C@H](C(=O)N1[C@@H](C)CC[C@H]1c1ncc(-c2ccc3c(c2)COc2cc4c(ccc5nc([C@@H]6CC[C@H](C)N6C(=O)[C@@H](NC(=O)OC)C6CCOCC6)[nH]c54)cc2-3)[nH]1)C(C)C [Comp 5, reference compound] | 0.041 | 0.012 | 0.549 | 0.054 | 0.013 | 0.029 | 0.022 | 22 | 0.466 | 0.297 | – | – | – |
| COC(=O)N[C@H](C(=O)N1[C@@H](C)CC[C@H]1c1nc2ccc3cc4c(cc3c2[nH]1)OCc1cc(-c2cnc([C@@H]3CC[C@H](C)N3C(=O)[C@@H](NC(=O)OC)C3CCOCC3)[nH]2)ccc1-4)C(C)C [Comp 7, reference compound] | 0.035 | 0.035 | – | 0.088 | 0.015 | 0.028 | 0.018 | 10.2 | – | – | 0.037 | 0.019 | – |
| CC[C@H]1CC[C@@H](c2nc3ccc4cc5c(cc4c3[nH]2)OCc2cc(-c3cnc([C@@H]4CC[C@H](C)N4C(=O)[C@@H](NC(=O)OC)C(C)C)[nH]3)ccc2-5)N1C(=O)[C@@H](NC(=O)OC)[C@H]1CCCOC1 [Example AG, Methyl{(1S)-2-[(2S,5S)-2-ethyl-5-(9-{2-[(2S,5S)-1-{(2S)-2[(methoxycarbonyl)amino]-3-methylbutanoyl}-5-methylpyrrolidin-2-yl]-1H-imidazol-5-yl}-1,11-dihydroisochromeno[4′,3′:6,7]naphtho[1,2-d]imidazol-2-yl)pyrrolidin-1-yl]-2-oxo-1-[(3R)-tetrahydro-2H-pyran-3-yl]ethyl}carbamate] | 0.137 | 0.121 | – | 0.092 | 0.025 | 0.026 | 0.023 | 27.8 | – | – | – | 0.014 | – |
| COC(=O)N[C@H](C(=O)N1[C@H](c2ncc(-c3ccc4c(c3)COc3cc5c(ccc6nc([C@@H]7CC[C@H](C)N7C(=O)[C@@H](NC(=O)OC)C7C[C@@H](C)O[C@H](C)C7)[nH]c65)cc3-4)[nH]2)C[C@@H]2CCC[C@@H]21)C(C)C (stereo partly drawn) [Example AY, methyl {(2S)-1-[(2S,3aS,6aS)-2-(5-{2-[(2S,5S)-1-{(2S)-2-[(2R,6R)-2,6-dimethyltetrahydro-2H-pyran-4-yl]-2-[(methoxycarbonyl)amino]acetyl}-5-methylpyrrolidin-2-yl]-1,11-dihydroisochromeno[4′,3′:6,7]naphtho[1,2-d]imidazol-9-yl}-1H-imidazol-2-yl)hexahydrocyclopenta[b]pyrrol-1(2H)-yl]-3-methyl-1-oxobutan-2-yl}carbamate] | 0.023 | 0.013 | 8.48 | – | 0.018 | 0.028 | 0.027 | – | 0.531 | – | 0.03 | 0.011 | 1.18 |
| CC[C@H](C)[C@H](NC(=O)OC)C(=O)N1[C@@H](C)CC[C@H]1c1nc2ccc3cc4c(cc3c2[nH]1)OCc1cc(-c2cnc([C@@H]3CC[C@H](C)N3C(=O)[C@@H](NC(=O)OC)C3C[C@@H](C)O[C@H](C)C3)[nH]2)ccc1-4 (stereo partly drawn) [Example BL, methyl{(2S,3S)-1-[(2S,5S)-2-(9-{2-[(2S,5S)-1-{(2S)-2-[(2R,6R)-2,6-dimethyltetrahydro-2H-pyran-4-yl]-2-[(methoxycarbonyl)amino]acetyl}-5-methylpyrrolidin-2-yl]-1H-imidazol-5-yl}-1,11-dihydroisochromeno[4′,3′:6,7]naphtho[1,2-d]imidazol-2-yl)-5-methylpyrrolidin-1-yl]-3-methyl-1-oxopentan-2-yl}carbamate] | 0.014 | 0.022 | 1.05 | – | 0.009 | 0.024 | 0.018 | – | 0.228 | – | 0.021 | 0.006 | 0.531 |
